According to PubChem BioAssay AID248 (DTP/NCI, 2004):
Where “and” joins values, the source holds several entries; their conditions need not be identical. Identical values can stand only once. Toxic doses and inconclusive results are not listed.

System: L1210 leukemia ip in BDF1 mice, survival T/C
Experiment: NCI In Vivo Anticancer Drug Screen. Data for tumor model L1210 Leukemia (intraperitoneal) in B6D2F1 (BDF1) mice
Settings: endpoint: mean survival time, higher = longer survival
How it was run: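 In this screen, tumor-bearing mice given compound are compared to those given vehicle, and their survival values are reported as a treated-to-control quotient.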

[1] = dose: 100.0 mg/kg/injection, schedule: Q01DX009 (ip), vehicle: Klucel (hydroxypropylcellulose) (HPC)
[2] = dose: 100.0 mg/kg/injection, schedule: Q04DX003 (ip), vehicle: Klucel (hydroxypropylcellulose) (HPC)
[3] = dose: 200.0 mg/kg/injection, schedule: Q01DX009 (ip), vehicle: Klucel (hydroxypropylcellulose) (HPC)
[4] = dose: 200.0 mg/kg/injection, schedule: Q04DX003 (ip), vehicle: Klucel (hydroxypropylcellulose) (HPC)
[5] = dose: 400.0 mg/kg/injection, schedule: Q04DX003 (ip), vehicle: Klucel (hydroxypropylcellulose) (HPC)
[6] = dose: 100.0 mg/kg/injection, schedule: Q01DX009 (ip), vehicle: saline
[7] = dose: 100.0 mg/kg/injection, schedule: Q04DX002 (ip), vehicle: Klucel (hydroxypropylcellulose) (HPC)
[8] = dose: 200.0 mg/kg/injection, schedule: Q04DX002 (ip), vehicle: Klucel (hydroxypropylcellulose) (HPC)
[9] = dose: 400.0 mg/kg/injection, schedule: Q04DX002 (ip), vehicle: Klucel (hydroxypropylcellulose) (HPC)
[10] = dose: 100.0 mg/kg/injection, schedule: Q01DX001 (ip), vehicle: saline
[11] = dose: 200.0 mg/kg/injection, schedule: Q01DX001 (ip), vehicle: saline
[12] = dose: 400.0 mg/kg/injection, schedule: Q01DX001 (ip), vehicle: saline
[13] = dose: 100.0 mg/kg/injection, schedule: Q04DX003 (ip), vehicle: saline
[14] = dose: 200.0 mg/kg/injection, schedule: Q04DX003 (ip), vehicle: saline

Compound: CCCCn1cnc2c(=S)nc[nH]c21
- T/C (dose: 5.0 mg/kg/injection, schedule: Q01DX Z (ip), vehicle: carboxymethylcellulose (CMC)): 98 % of control
- T/C (dose: 8.0 mg/kg/injection, schedule: Q01DX Z (ip), vehicle: carboxymethylcellulose (CMC)): 103 % of control
- T/C (dose: 10.0 mg/kg/injection, schedule: Q01DX Z (ip), vehicle: carboxymethylcellulose (CMC)): 102 % of control
- T/C (dose: 16.0 mg/kg/injection, schedule: Q01DX Z (ip), vehicle: carboxymethylcellulose (CMC)): 103 % of control
- T/C (dose: 16.0 mg/kg/injection, schedule: Q01DX Z (ip), vehicle: saline): 94 % of control
- T/C (dose: 16.0 mg/kg/injection, schedule: Q01DX Z (oral), vehicle: carboxymethylcellulose (CMC)): 109 % of control
- T/C (dose: 20.0 mg/kg/injection, schedule: Q01DX Z (ip), vehicle: carboxymethylcellulose (CMC)): 104 % of control
- T/C (dose: 32.0 mg/kg/injection, schedule: Q01DX009 (ip), vehicle: saline): 101 % of control
- T/C (dose: 32.0 mg/kg/injection, schedule: Q01DX Z (ip), vehicle: carboxymethylcellulose (CMC)): 120 % of control
- T/C (dose: 32.0 mg/kg/injection, schedule: Q01DX Z (ip), vehicle: saline): 97 % of control
- T/C (dose: 32.0 mg/kg/injection, schedule: Q01DX Z (oral), vehicle: carboxymethylcellulose (CMC)): 112 % of control
- T/C (dose: 40.0 mg/kg/injection, schedule: Q01DX Z (ip), vehicle: carboxymethylcellulose (CMC)): 112 % of control
- T/C (dose: 64.0 mg/kg/injection, schedule: Q01DX009 (ip), vehicle: saline): 115 % of control and 121 % of control
- T/C (dose: 64.0 mg/kg/injection, schedule: Q01DX Z (ip), vehicle: saline): 123 % of control
- T/C (dose: 64.0 mg/kg/injection, schedule: Q01DX Z (oral), vehicle: carboxymethylcellulose (CMC)): 117 % of control
- T/C (dose: 86.0 mg/kg/injection, schedule: Q02DX010 (ip), vehicle: carboxymethylcellulose (CMC)): 117 % of control
- T/C (dose: 88.0 mg/kg/injection, schedule: Q02DX010 (ip), vehicle: carboxymethylcellulose (CMC)): 116 % of control
- T/C (dose: 100.0 mg/kg/injection, schedule: Q01DX015 (ip), vehicle: carboxymethylcellulose (CMC)): 178 % of control
- T/C (dose: 160.0 mg/kg/injection, schedule: Q01DX015 (ip), vehicle: carboxymethylcellulose (CMC)): 152 % of control
- T/C (dose: 225.0 mg/kg/injection, schedule: Q01DX015 (ip), vehicle: carboxymethylcellulose (CMC)): 124 % of control
- T/C (dose: 240.0 mg/kg/injection, schedule: Q01DX015 (ip), vehicle: carboxymethylcellulose (CMC)): 116 % of control
- T/C (dose: 256.0 mg/kg/injection, schedule: Q01DX009 (ip), vehicle: saline): 121 % of control
- T/C (dose: 256.0 mg/kg/injection, schedule: Q01DX Z (ip), vehicle: saline): 100 % of control
- T/C (dose: 320.0 mg/kg/injection, schedule: Q01DX015 (ip), vehicle: carboxymethylcellulose (CMC)): 92 % of control
- T/C (dose: 335.0 mg/kg/injection, schedule: Q01DX015 (ip), vehicle: carboxymethylcellulose (CMC)): 98 % of control

Compound: Cc1cccc(C)c1NC(=O)Oc1ccc2ccccc2c1
- T/C [1]: 91 % of control
- T/C [2]: 104 % of control
- T/C [3]: 94 % of control
- T/C [4]: 104 % of control
- T/C (dose: 400.0 mg/kg/injection, schedule: Q01DX009 (ip), vehicle: Klucel (hydroxypropylcellulose) (HPC)): 101 % of control
- T/C [5]: 105 % of control

Compound: CCC(C)C(CCCCN(C)C)(CNC(=O)CN(CC)CC)c1cccc2ccccc12 (centres undefined)
- T/C [6]: 99 % of control

Compound: COc1ccc(C(c2ccc(OC)cc2)C(c2ccc(OC)cc2)c2ccc(OC)cc2)cc1
- T/C [7]: 98 % of control
- T/C [8]: 106 % of control
- T/C [9]: 103 % of control

Compound: CCOC(=O)CCc1c(C)c2ccc(O)cc2oc1=O
- T/C [10]: 98 % of control
- T/C [11]: 104 % of control
- T/C [12]: 94 % of control

Compound: Fc1c(F)c(-c2c(F)c(F)c(S)c(F)c2F)c(F)c(F)c1S
- T/C (dose: 100.0 mg/kg/injection, schedule: Q04DX002 (ip), vehicle: saline with Tween-80): 88 % of control
- T/C (dose: 200.0 mg/kg/injection, schedule: Q04DX002 (ip), vehicle: saline with Tween-80): 98 % of control

Compound: CCC(O)CN (centres undefined)
- T/C [13]: 96 % of control and 107 % of control
- T/C [14]: 96 % of control
- T/C (dose: 400.0 mg/kg/injection, schedule: Q04DX003 (ip), vehicle: saline): 95 % of control

Compound: O=C(Nc1ccc(F)c(Cl)c1)Nc1ccc(Cl)c(C(F)(F)F)c1
- T/C (dose: 100.0 mg/kg/injection, schedule: Q01DX009 (ip), vehicle: saline with Tween-80): 88 % of control
- T/C (dose: 200.0 mg/kg/injection, schedule: Q01DX009 (ip), vehicle: saline with Tween-80): 98 % of control

Compound: CC1=Nc2ccccc2/C1=C\c1c(C)[nH]c2ccccc12
- T/C (dose: 25.0 mg/kg/injection, schedule: Q01DX009 (ip), vehicle: Klucel (hydroxypropylcellulose) (HPC)): 97 % of control
- T/C (dose: 50.0 mg/kg/injection, schedule: Q01DX009 (ip), vehicle: Klucel (hydroxypropylcellulose) (HPC)): 97 % of control
- T/C (dose: 50.0 mg/kg/injection, schedule: Q01DX009 (ip), vehicle: acetone): 101 % of control
- T/C [10]: 96 % of control
- T/C [1]: 97 % of control
- T/C (dose: 100.0 mg/kg/injection, schedule: Q04DX003 (ip), vehicle: acetone): 96 % of control
- T/C [11]: 101 % of control
- T/C [3]: 97 % of control
- T/C (dose: 200.0 mg/kg/injection, schedule: Q04DX003 (ip), vehicle: acetone): 99 % of control
- T/C [12]: 104 % of control

Compound: CNCC(SC)c1ccc(O)c(O)c1 (centres undefined)
- T/C (dose: 50.0 mg/kg/injection, schedule: Q01DX009 (ip), vehicle: saline): 103 % of control
- T/C [6]: 103 % of control
- T/C [13]: 114 % of control
- T/C (dose: 200.0 mg/kg/injection, schedule: Q01DX009 (ip), vehicle: saline): 121 % of control
- T/C [14]: 114 % of control

Compound: CS(=O)(=O)OCCCCCCOCCCCOCCCCOCCCCCCOS(C)(=O)=O
- T/C (dose: 100.0 mg/kg/injection, schedule: Q01DX001 (ip), vehicle: Klucel (hydroxypropylcellulose) (HPC)): 92 % of control
- T/C (dose: 200.0 mg/kg/injection, schedule: Q01DX001 (ip), vehicle: Klucel (hydroxypropylcellulose) (HPC)): 93 % of control
- T/C (dose: 400.0 mg/kg/injection, schedule: Q01DX001 (ip), vehicle: Klucel (hydroxypropylcellulose) (HPC)): 93 % of control

Compound: O=CNc1ccccc1.[Hg]
- T/C (dose: 1.56 mg/kg/injection, schedule: Q04DX003 (ip), vehicle: saline with Tween-80): 93 % of control
- T/C (dose: 3.13 mg/kg/injection, schedule: Q04DX003 (ip), vehicle: saline with Tween-80): 92 % of control
- T/C (dose: 6.25 mg/kg/injection, schedule: Q04DX003 (ip), vehicle: saline with Tween-80): 95 % of control and 112 % of control

Compound: CC[N+](CC)(CC)CCCC[P+](CC)(CC)CC
- T/C (dose: 12.0 mg/kg/injection, schedule: Q04DX003 (ip), vehicle: other): 95 % of control
- T/C (dose: 25.0 mg/kg/injection, schedule: Q04DX003 (ip), vehicle: other): 90 % of control
- T/C (dose: 50.0 mg/kg/injection, schedule: Q04DX003 (ip), vehicle: other): 93 % of control

Compound: COc1cc2cc3cc4cc(OC)c(OC)cc4c(C)[n+]3cc2cc1OC (tested in a mixture with another compound)
- T/C (dose: 2.5 mg/kg/injection, schedule: Q01DX009 (ip), vehicle: saline): 106 % of control
- T/C (dose: 5.0 mg/kg/injection, schedule: Q01DX009 (ip), vehicle: saline): 108 % of control and 118 % of control
- T/C (dose: 10.0 mg/kg/injection, schedule: Q01DX009 (ip), vehicle: saline): 108 % of control
- T/C (dose: 20.0 mg/kg/injection, schedule: Q01DX009 (ip), vehicle: saline): 104 % of control
- T/C (dose: 40.0 mg/kg/injection, schedule: Q01DX009 (ip), vehicle: saline): 110 % of control and 111 % of control
- T/C (dose: 80.0 mg/kg/injection, schedule: Q01DX009 (ip), vehicle: saline): 92 % of control

Compound: O=[N+]([O-])c1ccc2c(c1)/C(=C1/c3cc(Br)ccc3-c3ccc([N+](=O)[O-])cc31)c1cc(Br)ccc1-2
- T/C (dose: 100.0 mg/kg/injection, schedule: Q04DX003 (ip), vehicle: saline with Tween-80): 87 % of control
- T/C (dose: 200.0 mg/kg/injection, schedule: Q04DX003 (ip), vehicle: saline with Tween-80): 97 % of control
- T/C (dose: 400.0 mg/kg/injection, schedule: Q04DX003 (ip), vehicle: saline with Tween-80): 92 % of control

Compound: C[C@@]1(C(=O)O)CC2C=CC1C2 (some centres undefined)
- T/C [7]: 96 % of control
- T/C [8]: 96 % of control
- T/C [9]: 93 % of control

Compound: CC(Oc1ccc([N+](=O)[O-])cc1Cl)C(=O)Nc1ccc(S(=O)(=O)F)cc1 (centres undefined)
- T/C [2]: 100 % of control
- T/C [4]: 100 % of control
- T/C [5]: 92 % of control
